Tests used:
Type in all cases: cell-based
KBV [1] = assay: Reversal of Pgp-mediated paclitaxel resistance in human KBV cells assessed as cell viability at 10 uM in presence of paclitaxel incubated for 72 hrs by MTT assay
KBV [2] = assay: Reversal of Pgp-mediated paclitaxel resistance in human KBV cells assessed as cell viability at 5 uM in presence of paclitaxel incubated for 72 hrs by MTT assay
[3] = Cytotoxicity against human KBV cells assessed as cell viability at 10 uM incubated for 72 hrs by MTT assay; details: read-out: Activity

| Compound | Activity (KBV [1]; filed as modulator) [%] | Activity (KBV [2]) [%] | viability at 72 h, 10 µM [3] [%] | Activity (KBV [1]) [%] | Activity (KBV [2]; filed as modulator) [%] |
| --- | --- | --- | --- | --- | --- |
| CC(C)(C)OC(=O)N[C@@H](Cc1ccc(OC(C)(C)C)cc1)C(=O)O[C@H]1CC[C@]2(C)[C@H]3C[C@@H](O)[C@@H]4[C@@H]([C@]5(C)CC[C@@H](C(C)(C)O)O5)CC[C@@]4(C)[C@]3(C)CC[C@H]2C1(C)C | 22 | 78 | 104 | – | – |
| CC(C)(O)[C@@H]1CC[C@@](C)([C@H]2CC[C@]3(C)[C@@H]2[C@H](O)C[C@@H]2[C@@]4(C)CC[C@H](OC(=O)[C@@H](N)Cc5ccc(O)cc5)C(C)(C)[C@@H]4CC[C@]23C)O1 | 35 | 87 | 97 | – | – |
| CC(C)(O)[C@@H]1CC[C@@](C)([C@H]2CC[C@]3(C)[C@@H]2[C@H](O)C[C@@H]2[C@@]4(C)CC[C@H](OC(=O)CN)C(C)(C)[C@@H]4CC[C@]23C)O1 | – | 98 | 86 | 63 | – |
| CC(C)(C)OC(=O)N[C@@H](Cc1ccc(OC(C)(C)C)cc1)C(=O)O[C@H]1CC[C@]2(C)[C@H]3C[C@@H](O)[C@@H]4[C@@H]([C@]5(C)CC[C@H](C(C)(C)O)O5)CC[C@@]4(C)[C@]3(C)CC[C@H]2C1(C)C | – | 107 | 98 | 71 | – |
| CC(C)(O)[C@H]1CC[C@@](C)([C@H]2CC[C@]3(C)[C@@H]2[C@H](O)C[C@@H]2[C@@]4(C)CC[C@H](OC(=O)[C@@H](N)Cc5ccc(O)cc5)C(C)(C)[C@@H]4CC[C@]23C)O1 | 27 | – | 87 | – | 28 |
| CC(C)(C)OC(=O)N[C@@H](Cc1ccccc1)C(=O)O[C@H]1CC[C@]2(C)[C@H]3C[C@@H](O)[C@@H]4[C@@H]([C@]5(C)CC[C@H](C(C)(C)O)O5)CC[C@@]4(C)[C@]3(C)CC[C@H]2C1(C)C | 25 | – | 125 | – | 48 |
| CC(C)(C)OC(=O)C[C@H](NC(=O)OC(C)(C)C)C(=O)O[C@H]1CC[C@]2(C)[C@H]3C[C@@H](O)[C@@H]4[C@@H]([C@]5(C)CC[C@H](C(C)(C)O)O5)CC[C@@]4(C)[C@]3(C)CC[C@H]2C1(C)C | 20 | – | 85 | – | 32 |
| C[C@@H](OCc1ccccc1)[C@H](N)C(=O)O[C@H]1CC[C@]2(C)[C@H]3C[C@@H](O)[C@@H]4[C@@H]([C@]5(C)CC[C@@H](C(C)(C)O)O5)CC[C@@]4(C)[C@]3(C)CC[C@H]2C1(C)C | 30 | – | 102 | – | 46 |
| C[C@@H](OCc1ccccc1)[C@H](NC(=O)OC(C)(C)C)C(=O)O[C@H]1CC[C@]2(C)[C@H]3C[C@@H](O)[C@@H]4[C@@H]([C@]5(C)CC[C@@H](C(C)(C)O)O5)CC[C@@]4(C)[C@]3(C)CC[C@H]2C1(C)C | 19 | – | 76 | – | 24 |
| C[C@@H](OCc1ccccc1)[C@H](NC(=O)OC(C)(C)C)C(=O)O[C@H]1CC[C@]2(C)[C@H]3C[C@@H](O)[C@@H]4[C@@H]([C@]5(C)CC[C@H](C(C)(C)O)O5)CC[C@@]4(C)[C@]3(C)CC[C@H]2C1(C)C | – | 138 | 138 | 144 | – |
| CC(C)(C)OC(=O)CC[C@H](NC(=O)OC(C)(C)C)C(=O)O[C@H]1CC[C@]2(C)[C@H]3C[C@@H](O)[C@@H]4[C@@H]([C@]5(C)CC[C@H](C(C)(C)O)O5)CC[C@@]4(C)[C@]3(C)CC[C@H]2C1(C)C | 19 | – | 82 | – | 31 |
| CC(C)(C)OC(=O)CC[C@H](NC(=O)OC(C)(C)C)C(=O)O[C@H]1CC[C@]2(C)[C@H]3C[C@@H](O)[C@@H]4[C@@H]([C@]5(C)CC[C@@H](C(C)(C)O)O5)CC[C@@]4(C)[C@]3(C)CC[C@H]2C1(C)C | 17 | – | 46 | – | 19 |
| CC(C)(O)[C@@H]1CC[C@@](C)([C@H]2CC[C@]3(C)[C@@H]2[C@H](O)C[C@@H]2[C@@]4(C)CC[C@H](OC(=O)[C@@H](N)Cc5ccccc5)C(C)(C)[C@@H]4CC[C@]23C)O1 | 29 | – | 100 | – | 35 |
| CC(C)(O)[C@H]1CC[C@@](C)([C@H]2CC[C@]3(C)[C@@H]2[C@H](O)C[C@@H]2[C@@]4(C)CC[C@H](OC(=O)[C@@H](N)Cc5c[nH]c6ccccc56)C(C)(C)[C@@H]4CC[C@]23C)O1 | 30 | – | 81 | – | 32 |
| CC(C)(C)OC(=O)NCCCC[C@H](NC(=O)OC(C)(C)C)C(=O)O[C@H]1CC[C@]2(C)[C@H]3C[C@@H](O)[C@@H]4[C@@H]([C@]5(C)CC[C@@H](C(C)(C)O)O5)CC[C@@]4(C)[C@]3(C)CC[C@H]2C1(C)C | 21 | – | 123 | – | 28 |
| CC(C)(O)[C@@H]1CC[C@@](C)([C@H]2CC[C@]3(C)[C@@H]2[C@H](O)C[C@@H]2[C@@]4(C)CC[C@H](OC(=O)[C@@H](N)CCCCN)C(C)(C)[C@@H]4CC[C@]23C)O1 | – | 98 | 81 | 82 | – |

| Compound | Activity (KBV [1]; filed as modulator) [%] | Activity (KBV [2]) [%] | viability at 72 h, 10 µM [3] [%] | Activity (KBV [1]) [%] | Activity (KBV [2]; filed as modulator) [%] |
| --- | --- | --- | --- | --- | --- |
| CC(C)(O)[C@@H]1CC[C@@](C)([C@H]2CC[C@]3(C)[C@@H]2[C@H](O)C[C@@H]2[C@@]4(C)CC[C@H](OC(=O)[C@@H](N)CCC(=O)O)C(C)(C)[C@@H]4CC[C@]23C)O1 | – | 95 | 112 | 92 | – |
| CC(C)[C@H](N)C(=O)O[C@H]1CC[C@]2(C)[C@H]3C[C@@H](O)[C@@H]4[C@@H]([C@]5(C)CC[C@@H](C(C)(C)O)O5)CC[C@@]4(C)[C@]3(C)CC[C@H]2C1(C)C | 25 | – | 96 | – | 49 |
| CC(C)(O)[C@H]1CC[C@@](C)([C@H]2CC[C@]3(C)[C@@H]2[C@H](O)C[C@@H]2[C@@]4(C)CC[C@H](OC(=O)CN)C(C)(C)[C@@H]4CC[C@]23C)O1 | 28 | – | 106 | – | 43 |
| CC(C)(C)OC(=O)NCC(=O)O[C@H]1CC[C@]2(C)[C@H]3C[C@@H](O)[C@@H]4[C@@H]([C@]5(C)CC[C@@H](C(C)(C)O)O5)CC[C@@]4(C)[C@]3(C)CC[C@H]2C1(C)C | 18 | – | 107 | – | 30 |
| CC(C)(O)[C@@H]1CC[C@@](C)([C@H]2CC[C@]3(C)[C@@H]2[C@H](O)C[C@@H]2[C@@]4(C)CC[C@H](OC(=O)[C@@H](N)CC(=O)O)C(C)(C)[C@@H]4CC[C@]23C)O1 | – | 110 | 106 | 92 | – |
| CC(C)(C)OC(=O)N[C@@H](Cc1cn(C(=O)OC(C)(C)C)c2ccccc12)C(=O)O[C@H]1CC[C@]2(C)[C@H]3C[C@@H](O)[C@@H]4[C@@H]([C@]5(C)CC[C@@H](C(C)(C)O)O5)CC[C@@]4(C)[C@]3(C)CC[C@H]2C1(C)C | – | 138 | 137 | 147 | – |
| CC(C)(O)[C@H]1CC[C@@](C)([C@H]2CC[C@]3(C)[C@@H]2[C@H](O)C[C@@H]2[C@@]4(C)CC[C@H](OC(=O)[C@@H](N)CCCCN)C(C)(C)[C@@H]4CC[C@]23C)O1 | 29 | 85 | 45 | – | – |
| CC(C)(O)[C@@H]1CC[C@@](C)([C@H]2CC[C@]3(C)[C@@H]2[C@H](O)C[C@@H]2[C@@]4(C)CC[C@H](O)C(C)(C)[C@@H]4CC[C@]23C)O1 | – | 74 | 81 | 72 | – |
| CC(C)[C@H](NC(=O)OC(C)(C)C)C(=O)O[C@H]1CC[C@]2(C)[C@H]3C[C@@H](O)[C@@H]4[C@@H]([C@]5(C)CC[C@@H](C(C)(C)O)O5)CC[C@@]4(C)[C@]3(C)CC[C@H]2C1(C)C | – | 106 | 128 | 110 | – |
| CC(C)(C)OC(=O)N[C@@H](Cc1cn(C(=O)OC(C)(C)C)c2ccccc12)C(=O)O[C@H]1CC[C@]2(C)[C@H]3C[C@@H](O)[C@@H]4[C@@H]([C@]5(C)CC[C@H](C(C)(C)O)O5)CC[C@@]4(C)[C@]3(C)CC[C@H]2C1(C)C | – | 165 | 132 | 161 | – |
| CC(C)(O)[C@H]1CC[C@@](C)([C@H]2CC[C@]3(C)[C@@H]2[C@H](O)C[C@@H]2[C@@]4(C)CC[C@H](OC(=O)[C@@H](N)CCC(=O)O)C(C)(C)[C@@H]4CC[C@]23C)O1 | – | 105 | 106 | 72 | – |
| CC(C)(O)[C@H]1CC[C@@](C)([C@H]2CC[C@]3(C)[C@@H]2[C@H](O)C[C@@H]2[C@@]4(C)CC[C@H](OC(=O)[C@@H](N)Cc5ccccc5)C(C)(C)[C@@H]4CC[C@]23C)O1 | 21 | – | 74 | – | 26 |
| CC(C)[C@H](N)C(=O)O[C@H]1CC[C@]2(C)[C@H]3C[C@@H](O)[C@@H]4[C@@H]([C@]5(C)CC[C@H](C(C)(C)O)O5)CC[C@@]4(C)[C@]3(C)CC[C@H]2C1(C)C | 23 | – | 84 | – | 33 |
| CC(C)(C)OC(=O)N[C@@H](Cc1ccccc1)C(=O)O[C@H]1CC[C@]2(C)[C@H]3C[C@@H](O)[C@@H]4[C@@H]([C@]5(C)CC[C@@H](C(C)(C)O)O5)CC[C@@]4(C)[C@]3(C)CC[C@H]2C1(C)C | 16 | – | 17 | – | 17 |
| CC(C)(C)OC(=O)NCC(=O)O[C@H]1CC[C@]2(C)[C@H]3C[C@@H](O)[C@@H]4[C@@H]([C@]5(C)CC[C@H](C(C)(C)O)O5)CC[C@@]4(C)[C@]3(C)CC[C@H]2C1(C)C | 22 | – | 106 | – | 28 |

From ChEMBL document CHEMBL4732258, “Pyxinol bearing amino acid residues: Easily achievable and promising modulators of P-glycoprotein-mediated multidrug resistance” (Eur J Med Chem, 2021)
